Data from publication PMC11009648, “Development of an orally bioavailable mSWI/SNF ATPase degrader and acquired mechanisms of resistance in prostate cancer” (Proceedings of the National Academy of Sciences of the …, 2024).

What was measured:
[1] = system: panel of human cancer or normal cell lines; assay: Cell-TiterGlo viability assays in a panel of cell lines; type: cell-based; details: 5 d of treatment; sensitive: IC50 < 100 nM, resistant: IC50 > 100 nM
Experimental: Cells were seeded onto 96-well plates in appropriate culture media and allowed to adhere overnight prior to treatment. The next day, a nine-point serial dilution of the compounds was prepared and added to the plates. After treatment, the cells were then incubated for an additional 5 d. On the last day of treatment, the CellTiter-Glo cell viability assay (Promega) was then executed in accordance with the manufacturer’s guidelines. The signal (luminescence) from each well was determined using an Infinite M1000 Pro plate reader (Tecan). Relative viability was determined by dividing the signal from each well by the average of the control condition in each experiment. Finally, the data were analyzed and plotted using GraphPad Prism.

[2] = In vivo pharmacokinetics in mice; details: plasma; for Cmax: read-out: Cmax/C0
Excerpt: (§1) All experimental procedures relating to animal care, handling, and treatment were approved by the Institutional Animal Ethics Committee of Aurigene Oncology Ltd. based on the Committee for Control and Supervision of Experiments on Animals guidelines. Animals were included for experimentation after 1 wk of acclimatization to standard laboratory conditions and were provided with reverse osmosis-treated water and rodent pellet diet ad libitum.
(§2) The pharmacokinetic profile of AU-24118 was studied in both mice and rats. For assessment of oral bioavailability, AU-24118 was administered by intravenous (i.v.) and oral (p.o.) routes at 1 mg/kg and 30 mg/kg doses, respectively (n = 3). For the oral arm, AU-24118 was administered as a solution formulation in 10% PEG200, 50% of 20% D-α-Tocopherol polyethylene glycol 1000 succinate and 40% of 1% Tween-80 in water while AU-24118 was formulated in 2% DMA and 10% HPβCD in saline (qs) for the intravenous administration.
(§3) Concentrations of AU-24118 were determined in plasma samples using a nonvalidated (fit for purpose) LC–MS/MS method in positive Multiple Reaction Monitoring mode with transition pair of m/z: 633.11→344.00. Either Carbamazepine (with a transition pair of m/z: 237.07→194.10) or Telmisartan (with a transition pair of m/z: 515.16→276.00) were used as internal standards. Sample processing was carried out by protein precipitation followed by evaporation method. Compound concentrations were calculated using Analyst® software 1.7.2 with linear/quadratic regression algorithm (with 1/×2 weighting factor) over a quantification range of 1 ng/mL to 2,500 ng/mL with the low and high ends of this range defining the lower limit of quantitation and upper limit of quantitation, respectively.

[3] = In vivo pharmacokinetics in rats; details: plasma; for Cmax: read-out: Cmax/C0
Excerpt: as §1, §2, §3

[4] = Toxicity and maximum tolerated dose in tumor-free CB17 SCID mice; type: in vivo
Experimental: To evaluate the preclinical safety of AU-24118, we conducted extensive toxicity analyses with AU-24118 in mice. First, to establish the maximum tolerated dose, we implemented a dosage escalation experiment in CB17 SCID (severe combined immunodeficiency) tumor-free mice.
We further characterized the host organ (spleen, kidney, and liver) morphology and function upon AU-24118 treatment at the maximum tolerated dose (15 mg/kg) in CB17 SCID mice. […] Additionally, we evaluated liver and kidney function using a blood panel on a separate cohort of CB17 SCID mice that underwent 25 d treatment with AU-24118 at the maximum tolerated dose.
Organs (liver, spleen, and kidney) were harvested from mice and fixed in neutral buffered formalin (10%) and subsequently embedded in paraffin to generate tissue blocks. These blocks were then sectioned at a thickness of 4 µm and stained using Harris hematoxylin (Leica Surgipath) and alcoholic eosin-Y stain (Leica Surgipath). Staining was executed using the automated Leica autostainer-XL platform. Upon staining, the sections were subsequently analyzed by two pathologists on a brightfield microscope to determine morphology and architectural coherence. These pathological assessments were performed in a blinded manner. Detailed and comprehensive analysis of cellular and -subcellular level changes of organs were performed as previously described ([16]).

[5] = In vivo pharmacokinetics in mice; details: mouse, plasma, oral, dose escalation (Fig. 1G)
[6] = system: SMARCA4, PBRM1 and SMARCA2 in 22Rv1-AUR-3 xenografts; assay: 22Rv1-AUR-3 xenograft pharmacodynamics study; details: 5 d; AU-24118 15 mg/kg oral gavage three times per week; zosuquidar 40 mg/kg i.p.
Experimental: Lysates were prepared using radioimmunoprecipitation assay buffer (Thermo Fisher) with cOmpleteTM protease inhibitor cocktail tablets (Sigma-Aldrich) added. Total protein for each sample was determined using the DC Protein Assay (Bio-Rad) according to the manufacturer’s instructions. A standardized quantity of protein was resolved using NuPAGE Tris-Acetate Protein Gel (3 to 8%) (Thermo Fisher) or NuPAGE Bis-Tris Protein Gel (4 to 12%) (Thermo Fisher) and probed with primary antibodies as indicated. Following incubation with secondary antibodies conjugated with horseradish peroxidase, membranes were imaged on an Odyssey Fc Imager (LiCOR Biosciences).
For the 22Rv1-AUR-3 model, bilateral subcutaneous dorsal flank tumors were established by injecting 1 × 10^6 cells suspended in a 1:1 mixture of serum-free medium and Matrigel (BD Biosciences). Once tumors reached an average volume of 100 mm^3, mice were randomized and treated with either 60 mg/kg AU-15330 by retro-orbital vein injection 3 times every other day and with or without 10 mg/kg, 20 mg/kg, or 40 mg/kg of zosuquidar by intraperitoneal injection daily for 5 d per week. […] Animals harboring tumors approaching that size were immediately killed. All in vivo studies were approved by the U-M IACUC.

[7] = mouse, iv, CD1 Mice, I.V. 1mg/kg
[8] = mouse, po, CD1 Mice, P.O. 30mg/kg
[9] = mouse, mice, oral, 10mg/kg, dose escalation (Fig. 1G)
[10] = mouse, mice, oral, 30mg/kg, dose escalation (Fig. 1G)

Question: Which “cell viability preference across diverse cell lines” value [1] does the source give for Nc1nnc(-c2ccccc2O)cc1-c1ccc(N2CCC(N3CCC(c4ccc(OC5CCC(=O)NC5=O)cc4)CC3)CC2)cc1 (stereo not shown) [AU-24118] here?
Answer: notable preference for inhibiting transcription factor–addicted cancer cells

Question: And the bioavailability ([2]; CD1, mouse, oral, mice, i.v. 1 mg/kg, p.o. 30 mg/kg, read-out: Oral bioavailability (%F))?
Answer: 33.4%

Question: And the AUC(0-inf) [2, 7]?
Answer: 1680 ng·h/mL

Question: And the AUC(0-t) [2, 7]?
Answer: 1630 ng·h/mL

Question: And the half-life ([2]; mouse, iv, CD1 Mice, I.V. 1mg/kg, read-out: Beta t1/2 (converted))?
Answer: 4.76 h

Question: What about the clearance ([2]; mouse, iv, CD1 Mice, I.V. 1mg/kg, read-out: CI (Clearance)) of the same compound?
Answer: 10 mL/min/kg

Question: What about the Cmax [2, 7] of the same compound?
Answer: 443 ng/mL

Question: What about the Vd ([2]; mouse, iv, CD1 Mice, I.V. 1mg/kg, read-out: Vdss) of the same compound?
Answer: 3.3 L/kg

Question: What about the AUC(0-t) [2, 8] of the same compound?
Answer: 16300 ng·h/mL

Question: What about the Cmax [2, 8] of the same compound?
Answer: 1030 ng/mL

Question: What about the Tmax [2, 9] of the same compound?
Answer: 6 h

Question: What about the Cmax [2, 9] of the same compound?
Answer: 345 ng/mL

Question: What about the AUC(0-t) [2, 10] of the same compound?
Answer: 14700 ng·h/mL

Question: And the Tmax [2, 10]?
Answer: 3 h

Question: And the Cmax [2, 10]?
Answer: 1190 ng/mL

Question: And the Tmax ([2]; mouse, mice, oral, 100mg/kg, dose escalation (Fig. 1G))?
Answer: 4 h

Question: What about the bioavailability ([3]; Wistar, rat, oral, rats, i.v. 1 mg/kg, p.o. 30 mg/kg, read-out: Oral bioavailability (%F)) of the same compound?
Answer: 16.3%

Question: What about the AUC(0-inf) ([3]; iv, Wistar Rat, I.V. 1mg/kg) of the same compound?
Answer: 756 ng·h/mL

Question: And the AUC(0-t) ([3]; iv, Wistar Rat, I.V. 1mg/kg)?
Answer: 670 ng·h/mL

Question: What about the half-life ([3]; iv, Wistar Rat, I.V. 1mg/kg, read-out: Beta t1/2 (converted)) of the same compound?
Answer: 8.02 h

Question: What about the clearance ([3]; iv, Wistar Rat, I.V. 1mg/kg, read-out: CI (Clearance)) of the same compound?
Answer: 22.1 mL/min/kg

Question: What about the Cmax ([3]; iv, Wistar Rat, I.V. 1mg/kg) of the same compound?
Answer: 96.2 ng/mL

Question: And the Vd ([3]; iv, Wistar Rat, I.V. 1mg/kg, read-out: Vdss)?
Answer: 13.3 L/kg

Question: And the AUC(0-t) ([3]; po, Wistar Rat, P.O. 30mg/kg)?
Answer: 3280 ng·h/mL

Question: What about the Cmax ([3]; po, Wistar Rat, P.O. 30mg/kg) of the same compound?
Answer: 184 ng/mL

Question: And the “H&E staining of spleen, kidney and liver” value ([4]; CB17 SCID mice, 15 mg/kg)?
Answer: no discernible toxicity in normal tissues

Question: What about the “blood panel of liver and kidney function (ALT, AST, BUN, CREA)” value ([4]; CB17 SCID mice, 25 d treatment, 15 mg/kg) of the same compound?
Answer: slight elevation in alanine transaminases

Question: What about the “tolerability (body weight, morbidity)” value ([4]; CB17 SCID tumor-free mice, 20 mg/kg three times weekly) of the same compound?
Answer: noticeable weight loss after the first week, culminating in morbidity or fatality by the second week

Question: And the “tolerability (body weight)” value ([4]; CB17 SCID tumor-free mice, up to 15 mg/kg three times weekly)?
Answer: well-tolerated responses

Question: And the MTD ([4]; mouse, in vivo, oral, CB17 SCID mice, dosed three times weekly)?
Answer: 15 mg/kg

Question: And the AUC(0-t) ([5]; 10mg/kg)?
Answer: 4930 ng·h/mL

Question: And the AUC(0-t) ([5]; 100mg/kg)?
Answer: 32200 ng·h/mL

Question: What about the Cmax ([5]; 100mg/kg, read-out: Cmax/C0) of the same compound?
Answer: 1930 ng/mL

Question: What about the “degradation of target proteins in tumors, immunoblot” value [6] of the same compound?
Answer: mild degradation of its target proteins
